Experimental data reported in US20250114337A1, “METHODS FOR VASCULAR REGENERATION AND WOUND TREATMENT” (THE METHODIST HOSPITAL, priority 2022, published 2025).

What was measured:
[1] = tested on: ischemic hindlimb model; test: ischemic hindlimb model in fibroblast lineage tracing Fsp1-Cre: R26R-EYFP mice; type: in vivo, mouse; conditions: 7 days post-surgery
Experimental: Using established transdifferentiation protocol and metabolomics profiling to assess the global metabolic changes during transdifferentiation. […] To determine the role of this metabolite in transdifferentiation, the effect of Thiamet G was assessed, an inhibitor of OGA, which enhances O-GlcNAcylation. Thiamet G increased transdifferentiation efficiency in vitro. In a fibroblast lineage tracing mice, Fsp1-Cre: R26R-EYFP mice, Thiamet G increased tissue O-glycnacylation, increased capillary density and limb perfusion, and increased the number of fibroblasts transdifferentiating into endothelial cells (i.e. FSP+CD31+ cell) in an ischemic hindlimb model.
Angiogenic transdifferentiation in limb ischemia. A fibroblast lineage tracing mouse model (Fsp1-Cre: R26R-EYFP) was used to detect transdifferentiation in vivo in a murine model of limb ischemia (Meng, S., et al., Circulation, 2020. 142 (17): p. 1647-1662). […] This population is abolished when the mice are treated with anti-inflammatory drugs, such as dexamethasone. Intriguingly, the disappearance of these cells is associated with a reduction in perfusion recovery and worsening clinical scores. Similar results are achieved when inflammatory signaling is impaired, as in Fsp1-Cre: Rela flox/flox mice. In these animals, NFκB signaling is blocked in the Fsp1+fibroblasts, associated with a dramatic reduction in transdifferentiated fibroblasts (i.e. YFP+CD144+ cells), and impaired perfusion (Meng. S., et al., Circulation, 2020. 142 (17): p. 1647-1662). […] Cluster 8 produced angiogenic cytokines, whereas Cluster 5 expressed genes associated with EC identity (i.e CD144). But only Cluster 5 could generate EC-like networks in Matrigel whereas other fibroblasts, including Cluster 8 fibroblasts, formed nodal structures typical of fibroblasts in Matrigel. The data support the idea that transdifferentiation may occur in vivo with tissue ischemia, and is dependent on inflammatory signaling. This model can be used to study the contribution of O-GlcNAcylation in transdifferentiation and limb ischemia recovery in vivo. A similar lineage tracing approach can be used with tamoxifen-inducible Col1A2-Cre/ERT: R26R-tdTomato mouse strain to study the contribution of O-GlcNAcylation in transdifferentiation and limb ischemia recovery in vivo.
To determine if O-GlcNAcylation enhances revascularization through transdifferentiation, fibroblasts lineage tracing Fsp1-Cre: R26R-EYFP mice strain were utilized where it was previously observed the in situ transdifferentiation phenomenon (FIG. 20A). In this model, all the fibroblasts expressing Fsp1 (fibroblast-specific protein1) are marked with YFP. With this model, a significant increase in the FSP-expressing cell progeny in the ischemic limb was identified compared with the sham-operated limb 3 days after the femoral artery ligation was perform (FIG. 20A) and compare the YFP+ cells over the different time points (FIG. 20A). The percentage of the YFP+CD31+CD11b-cell population which is considered the transdifferentiation population was analyzed further. […] To determine the role of the O-GlcNAcylation on the transdifferentiation, the Fsp1-Cre: R26R-EYFP mice that are undergoing vascular recovery with OSMI were treated, and the transdifferentiation population in the limb muscle tissue 7 days post-surgery was analyzed.

[2] = tested on: H3.3 deposition; test: H3.3-SNAP tagging, quench-chase-pulse TMR-Star labeling; type: cell-based; conditions: Poly I:C + OSMI
Source text: To identify the role of O-GlcNAcylation of histone variant h3.3 chaperone protein, HIRA, on transdifferentiation. The effects of O-GlcNAcylation on proteins that may be involved in the epigenetic regulation of transdifferentiation can be assessed. Nucleosome turnover is known to be tightly interrelated with DNA accessibility, and histone variant h3.3 is a hallmark of regulatory regions in the mammalian genome and is required to establish open chromatins. HIRA is the chaperone for h3.3, it forms a complex with other subunits, including ASF1. UBN, and CABIN, and is responsible for h3.3 deposition on the chromatin. OGT interacts with and O-GlcNAcylates HIRA, both of which are critical for the formation of the HIRA-h3.3 complex and h3.3 deposition and its dependent gene activation. […] The role of HIRA in transdifferentiation with fibroblasts that have HIRA knocked down or overexpressed can be determined. […] Thereafter, the de novo deposited SNAP-h3.3 will be pulse-labeled with the TMR-Star, which is a readily detectable and quantifiable red-fluorescent substrate. […]
To test whether innate immune activation enhances the H3.3 deposition in the chromatin, the H3.3-SNAP tagging system was generated where the newly synthesized H3.3 will be detected by fluorescent TMR-Star labeling with quench-chase-pulse strategy.

## CCOC(=O)CN(Cc1cccs1)C(=O)[C@H](NS(=O)(=O)c1cc2ccc(=O)[nH]c2cc1Cl)c1ccccc1OC [OSMI]
[1]
  transdifferentiation population (YFP+CD31+CD11b-) in limb muscle tissue: significantly reduced
[2]
  Poly I:C-enhanced H3.3 deposition: impaired
